Measured values from BindingDB's records for doi:10.7270/Q25719N6 (The Scripps Research Institute Molecular Screening Center, 2013).

Target: T1, Fructose-bisphosphate aldolase (Mycobacterium tuberculosis (strain ATCC 25618 / H37Rv), UniProt P9WQA3)
T1 sequence (P9WQA3 whole entry): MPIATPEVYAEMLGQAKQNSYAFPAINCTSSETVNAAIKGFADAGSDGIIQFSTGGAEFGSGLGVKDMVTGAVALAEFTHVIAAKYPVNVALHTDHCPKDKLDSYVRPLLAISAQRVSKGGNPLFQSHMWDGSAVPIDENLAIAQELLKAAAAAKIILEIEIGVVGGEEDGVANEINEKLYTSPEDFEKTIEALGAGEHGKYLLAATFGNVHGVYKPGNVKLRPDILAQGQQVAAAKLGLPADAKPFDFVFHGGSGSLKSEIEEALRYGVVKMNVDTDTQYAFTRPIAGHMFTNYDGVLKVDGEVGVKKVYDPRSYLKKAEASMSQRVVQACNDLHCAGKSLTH

Compound	IC50 [nM]
O=C(NCc1cccc(Cl)c1)C1=C2NS(=O)(=O)C=CN2C=CC1 [MLS002162417]	2610
N#CC1=C(C2CC2)CC(c2ccccc2)C(C#N)C1=N (configuration not stated) [SMR000039375]	> 10000
